Read-outs that look alike come from different tables or passages of the source.

Data set [1] has as its target SS-DNA: single-stranded DNA. The data set can be described thus: Binding of single-stranded DNA to VEPEP-6 peptides by fluorescence spectroscopy. The protocol: (§1) FIG. 2: Binding of nucleic acid to VEPEP-6a as monitored by TRP-intrinsic fluorescence spectroscopy. Dissociation constants were calculated from data fitting. Nucleic acids used: double stranded DNA (45/35 mer), siRNA (19/19 or 25/25) and single stranded DNA (19 or 36 mer)
(§2) VEPEP-6 peptide form stable complexes with siRNA, single stranded and double stranded oligonucleotides. The binding of cargos to VEPEP-6 was monitored by fluorescence spectroscopy using the both intrinsic Trp group of VEPEP-6 (3 to 5 Trp-residues) and extrinsic fluorescently labeled cargoes (using Cy3, Cy5 or FITC). Fluorescence experiments were performed on a PTI spectrofluorimeter at 25° C. in a NaCl 154 mM buffer. Intrinsic Trp-fluorescence of VEPEP-6 was excited at 290 nm and emission spectrum was recorded between 310 and 400 nm, with a spectral band-pass of 2 and 8 nm for excitation and emission, respectively. FITC-fluorescence of labelled-siRNA or DNA was excited at 492 nm and emission recorded between 500 and 580 nm. For VEPEP-6/siRNA interaction, 0.5 μM of FITC-labelled siRNA was titrated by increasing concentrations of peptide. All measurements were corrected for the dilution and curve fitting were performed by using Grafit software (Erithacus). Curve fitting reveal that VEPEP-6 strongly binds the different cargoes with dissociation constant in the nanomolar range (Table 1 and FIG. 2).
(§3) Binding of nucleic acid to ST-VEPEP-6aa was monitored by fluorescence spectroscopy using both TRP-intrinsic and fluorescently labelled nucleic acids. Dissociation constants were calculated from data fitting. Nucleic acids used were double stranded siRNA (19/19 or 25/25) and single stranded DNA (36 mer).

The target of data set [2] is siRNA. The data set can be described thus: Binding of siRNA to VEPEP-6 peptides by fluorescence spectroscopy. The protocol:
as §1, §2, §3

Data set [3] can be described thus: Binding of FAM-guanosine to VEPEP-6 by FAM fluorescence. The following applies: cargo FAM-guanosine. The procedure: (§4) FIG. 3: Binding of small hydrophobic molecules to VEPEP-6 as monitored by fluorescence spectroscopy. The binding of Doxorubicin, AZT and Porphyrin to VEPEP-6 was monitored by following the quenching of tryptophan-intrinsic VEPEP-6 fluorescence and that of fluoresceine-labelled-Guanosine (FAM-G) by monitoring FAM-fluorescence. Dissociation constants were calculated from data fitting.
FIGS. 8A and 8B: (8A) Binding of small hydrophobic fluorescent molecules (SFM) to VEPEP-6 as monitored by fluorescence spectroscopy. In the present case, a fluorescently labeled nucleotide (fluorescein-labeled-Guanine) was used. Dissociation constants were calculated from data fitting. (8B) Effect of VEPEP-6 mediated doxorubicin on cancer cell viability. Dose responses of free (white bars) and VEPEP-6 mediated (grey bars) doxorubicin have been evaluated on the viability of U2OS and MCF7 cancer cells.
(§5) VEPEP-6 peptides also form stable particles with small aromatic and/or hydrophobic molecules including daunomycin, Paclitaxel, doxorubicin, AZT, porphyrin, FAM-G or fluorescent dyes (FIG. 3). The dissociation constant for small hydrophobic molecule ranges between 0.03 to 4 μM, depending on the nature of the dyes and of the peptides.

A short description of data set [4]: Binding of AZT to VEPEP-6 by quenching of tryptophan fluorescence. Particulars: cargo AZT. The protocol: as §4, §5
A short description of data set [5]: Binding of doxorubicin to VEPEP-6 by quenching of tryptophan fluorescence. The following applies: cargo Doxorubicin. The protocol:
as §4, §5

The nature of data set [6]: Binding of porphyrin to VEPEP-6 by quenching of tryptophan fluorescence. The following applies: cargo porphyrin. The procedure: as §4, §5
Data set [7] has as its system DD-DNA: double-stranded DNA. The data set can be described thus: Binding of double-stranded DNA to VEPEP-6 peptides by fluorescence spectroscopy. Particulars: cargo DD-DNA. The protocol:
as §1, §2

The test system of data set [8] is cyclin B1. The data set can be described thus: Cyclin B1 silencing at protein (Western blotting) and mRNA (Quantigen) level. The data set is classed as cell-based, Human. Particulars: 200 nM siRNA complexed with VEPEP-6 at a 1/20 ratio. The procedure: FIGS. 6A-6C: VEPEP-6 dose response of Cyclin B1 silencing at the protein and mRNA levels on Hela (6A) and HS68 (6B) cells. Stock solution of VEPEP-6/siRNA ([…]) particles were prepared at a molar ratio of 1/20 (siRNA/VEPEP-6), and lower concentrations (from 200 nM to 0.125 nM) were obtained by serial dilution of the stock solution in PBS. HeLa (Panel A) and HS-68 (Panel B) cells (60% confluency) were overlaid with preformed complexes for 30 min, then fresh DMEM supplemented with 10% FCS was added directly to the cells, which were then returned to the incubator for 24 hrs. Cyclin B1 protein levels were determined by Western Blotting using Cdk2 as a control for quantification (white bars). Cyclin B1 mRNA levels were measured 12 hrs after transfection using Quantigen technology (black bars). Mismatched Cyc-B3 siRNA associated with VEPEP-6 (200 nM) and empty VEPEP-6 particles (20 μM) were used as a control. 6C: Dose-response of G2-arrest associated with Cyclin B1 silencing. HeLa (black bars) and HS68 (white bars) cells were treated with increasing concentrations of VEPEP-6/siRNA-Cyc-B1 from 0.25 nM to 20 nM. The cell cycle status was evaluated by FACS analysis. […]
Cyclin B1 mRNA and protein levels were determined 12 and 24 hrs following transduction, using Quantigen (Panomics Inc.) and Western blotting, respectively. […]
(In general: A western blot detects proteins with antibodies after separation by electrophoresis.)

Setting [9] is: cargo siRNA, 25° C., NaCl 154 mM buffer, read-out: Kd.

Consider “Ac-X1LFLARWRsLLRSsLWRLLWK-cysteamide [ST-VEPEP-6aa]”, for which the Kd came out at 4 nM in data set [1] (single stranded nucleic acid (DNA 36 mer), read-out: dissociation constant) and 7 nM in data set [2] (double stranded nucleic acid (siRNA 19/19 or 25/25), read-out: dissociation constant).
For the substance “Ac-[βA/S]LFRALWRLLR[S/T]LWRLLW[K/R]-cysteamide [VEPEP-6a]”, the Binding result in data set [3] was “no”; in data set [4] it was “no”; in data set [5], “yes”; in data set [6], “yes”; in data set [7], “yes”; in data set [1] (cargo SS-DNA), “yes”. In data set [2] (cargo siRNA), the Binding result is reported as “yes”. Besides, the Kd is 1000 nM in data set [5]; 4000 nM in data set [6]; 200 nM in data set [7]; 50 to 100 nM in data set [1] (cargo SS-DNA, read-out: Kd); 10 to 20 nM in data set [2] (setting [9]).
In the case of “Ac-[βA/S]LWRALWRLWR[S/T]LWRLLW[K/R]A-cysteamide [VEPEP-6b]”, the Binding entry was “no” in data set [3]; “no” in data set [4]; “yes” in data set [5]; “yes” in data set [6]; “yes” in data set [7]; “yes” in data set [1] (cargo SS-DNA). For the same substance, the Binding entry in data set [2] (cargo siRNA) is on record as “yes”. Also, the Kd is 700 nM in data set [5]; 5000 nM in data set [6]; 200 nM in data set [7]; 50 to 100 nM in data set [1] (cargo SS-DNA, read-out: Kd); 10 to 20 nM in data set [2] (setting [9]).
For “Ac-[βA/S]LWRALWRLWR[S/T]LWRLWR[K/R]A-cysteamide [VEPEP-6d]”, the Binding result in data set [3], in data set [4], in data set [5], in data set [6], in data set [7] and in data set [1] (cargo SS-DNA) was “yes” throughout. For the same substance, the Binding entry in data set [2] (cargo siRNA) is reported as “yes”. The Kd in data set [3] is 800 nM; in data set [4] it was 100 nM; in data set [5] it was 500 nM; in data set [6], 500 nM; in data set [7] it was 200 nM; in data set [1] (cargo SS-DNA, read-out: Kd), 50 to 100 nM. The Kd in data set [2] (setting [9]) was in the range of 10 to 20 nM.
Turning to “Ac-[βA/S]LWRALWRL[L/C/I]RNLWRLLW[K/R]A-cysteamide [VEPEP-6f]”, the Binding result in data set [3], in data set [4], in data set [5], in data set [6], in data set [7] and in data set [1] (cargo SS-DNA) was “yes” throughout. Besides, the Binding result in data set [2] (cargo siRNA) was “yes”. Further, the Kd in data set [3] is 2800 nM; in data set [4] it was 2400 nM; in data set [5], 200 nM; in data set [6] it was 200 nM; in data set [7], 200 nM; in data set [1] (cargo SS-DNA, read-out: Kd) it was 50 to 100 nM. Besides, in data set [2] (setting [9]), the Kd fell in the range of 10 to 20 nM.
In the case of “Ac-[βA/S]LWRALWRL[L/C/I]R[S/T]LWRLWR[K/R]A-cysteamide [VEPEP-6c]”, the Binding entry in data set [3], in data set [4], in data set [5], in data set [6], in data set [7] and in data set [1] (cargo SS-DNA) was “yes” throughout. Also, the Binding entry in data set [2] (cargo siRNA) is on record as “yes”. The Kd was 4000 nM in data set [3]; 300 nM in data set [4]; 30 nM in data set [5]; 1200 nM in data set [6]; 200 nM in data set [7]; 50 to 100 nM in data set [1] (cargo SS-DNA, read-out: Kd). In addition, in data set [2] (setting [9]), the Kd fell in the range of 10 to 20 nM.
As to “Ac-[βA/S]LWRALWRL[L/I]RALWRLLW[K/R]A-cysteamide [VEPEP-6e]”, the Binding result in data set [3], in data set [4], in data set [5], in data set [6], in data set [7] and in data set [1] (cargo SS-DNA) was “yes” each time. In addition, the Binding entry in data set [2] (cargo siRNA) was “yes”. For the same substance, the Kd in data set [3] is 2300 nM; in data set [4], 900 nM; in data set [5], 500 nM; in data set [6] it was 200 nM; in data set [7] it was 200 nM; in data set [1] (cargo SS-DNA, read-out: Kd) it was 50 to 100 nM. Moreover, in data set [2] (setting [9]), the Kd lay in the range of 10 to 20 nM.
Take “si-GAPDH: unrelated siRNA targeting GAPDH, SEQ ID No: 21/22 (chain 1 CAUCAUCCCUGCCUCUACUTT; chain 2 AGUAGAGGCAGGGAUGAUG; chemistry not given here)”: in data set [8], the “effect on cyclin B1 levels and cell cycle progression” value was “no effect”.

Values taken from patent publication US10287581B2, “Cell penetrating peptides for intracellular delivery of molecules” (AADIGEN, LLC, priority 2011, dated 2019).
